Source: ChEMBL document CHEMBL6127078, “Discovery of 7-(1-methyl-1H-pyrazol-4-yl)-1,6-naphthyridine derivatives as potent inhibitors of rearranged during transfection (RET) and RET solvent-front mutants for overcoming selpercatinib resistance” (Eur J Med Chem, 2024)
pIC50: −log10 of the molar value.

Experiments:
[1] = Cmax in male Sprague-Dawley rat at 1 mg/kg, iv; assay type: ADME, organism-based; details: in vivo
[2] = Clearance in male Sprague-Dawley rat at 1 mg/kg, iv; assay type: ADME, organism-based; details: in vivo
[3] = Toxicity in mouse allografted with mouse BaF3 cells harbouring KIF5B-RET G810R mutant assessed as effect on body weight loss at 10 to 30 mg/kg BID measured upto 14 days; assay type: organism-based; details: in vivo, 336 h, dose 10-30 mg/kg, time < 14 day
[4] = molecular target: Epithelial discoidin domain-containing receptor 1 (Homo sapiens, UniProt Q08345); test: Inhibition of DDR1 (unknown origin) by FRET-based Z-Lyte kinase assay
Chain of Epithelial discoidin domain-containing receptor 1 (Q08345 whole entry, the tested form may be a part): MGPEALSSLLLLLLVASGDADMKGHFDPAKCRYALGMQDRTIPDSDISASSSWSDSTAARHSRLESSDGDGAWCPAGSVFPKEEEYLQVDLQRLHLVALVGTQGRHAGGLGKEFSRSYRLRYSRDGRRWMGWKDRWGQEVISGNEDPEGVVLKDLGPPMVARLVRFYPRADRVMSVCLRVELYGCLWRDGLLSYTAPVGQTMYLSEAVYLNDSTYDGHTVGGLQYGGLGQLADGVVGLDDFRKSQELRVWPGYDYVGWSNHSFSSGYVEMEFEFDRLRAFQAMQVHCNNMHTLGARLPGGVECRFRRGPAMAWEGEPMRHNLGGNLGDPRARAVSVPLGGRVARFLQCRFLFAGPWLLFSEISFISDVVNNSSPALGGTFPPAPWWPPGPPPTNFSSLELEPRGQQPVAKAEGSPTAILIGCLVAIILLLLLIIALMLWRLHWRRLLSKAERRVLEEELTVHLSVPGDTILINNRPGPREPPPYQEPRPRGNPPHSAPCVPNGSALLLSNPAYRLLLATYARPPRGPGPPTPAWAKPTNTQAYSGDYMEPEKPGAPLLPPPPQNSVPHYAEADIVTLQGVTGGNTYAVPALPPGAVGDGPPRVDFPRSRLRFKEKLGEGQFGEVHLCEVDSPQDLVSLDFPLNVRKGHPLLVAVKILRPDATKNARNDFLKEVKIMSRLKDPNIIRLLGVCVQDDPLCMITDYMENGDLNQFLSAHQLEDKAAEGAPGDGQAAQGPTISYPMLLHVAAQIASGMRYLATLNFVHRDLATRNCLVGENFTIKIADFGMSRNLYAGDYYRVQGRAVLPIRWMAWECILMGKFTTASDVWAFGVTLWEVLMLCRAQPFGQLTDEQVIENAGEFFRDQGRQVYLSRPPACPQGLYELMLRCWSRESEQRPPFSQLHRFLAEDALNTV

[5] = molecular target: Proto-oncogene tyrosine-protein kinase receptor Ret (Homo sapiens, UniProt P07949, G810R); test: Inhibition of RET G810R mutant (unknown origin) by FRET-based ZLyte kinase assay
Chain of Proto-oncogene tyrosine-protein kinase receptor Ret (Homo sapiens, UniProt P07949, G810R) (P07949 29-1114 G810R limits assumed): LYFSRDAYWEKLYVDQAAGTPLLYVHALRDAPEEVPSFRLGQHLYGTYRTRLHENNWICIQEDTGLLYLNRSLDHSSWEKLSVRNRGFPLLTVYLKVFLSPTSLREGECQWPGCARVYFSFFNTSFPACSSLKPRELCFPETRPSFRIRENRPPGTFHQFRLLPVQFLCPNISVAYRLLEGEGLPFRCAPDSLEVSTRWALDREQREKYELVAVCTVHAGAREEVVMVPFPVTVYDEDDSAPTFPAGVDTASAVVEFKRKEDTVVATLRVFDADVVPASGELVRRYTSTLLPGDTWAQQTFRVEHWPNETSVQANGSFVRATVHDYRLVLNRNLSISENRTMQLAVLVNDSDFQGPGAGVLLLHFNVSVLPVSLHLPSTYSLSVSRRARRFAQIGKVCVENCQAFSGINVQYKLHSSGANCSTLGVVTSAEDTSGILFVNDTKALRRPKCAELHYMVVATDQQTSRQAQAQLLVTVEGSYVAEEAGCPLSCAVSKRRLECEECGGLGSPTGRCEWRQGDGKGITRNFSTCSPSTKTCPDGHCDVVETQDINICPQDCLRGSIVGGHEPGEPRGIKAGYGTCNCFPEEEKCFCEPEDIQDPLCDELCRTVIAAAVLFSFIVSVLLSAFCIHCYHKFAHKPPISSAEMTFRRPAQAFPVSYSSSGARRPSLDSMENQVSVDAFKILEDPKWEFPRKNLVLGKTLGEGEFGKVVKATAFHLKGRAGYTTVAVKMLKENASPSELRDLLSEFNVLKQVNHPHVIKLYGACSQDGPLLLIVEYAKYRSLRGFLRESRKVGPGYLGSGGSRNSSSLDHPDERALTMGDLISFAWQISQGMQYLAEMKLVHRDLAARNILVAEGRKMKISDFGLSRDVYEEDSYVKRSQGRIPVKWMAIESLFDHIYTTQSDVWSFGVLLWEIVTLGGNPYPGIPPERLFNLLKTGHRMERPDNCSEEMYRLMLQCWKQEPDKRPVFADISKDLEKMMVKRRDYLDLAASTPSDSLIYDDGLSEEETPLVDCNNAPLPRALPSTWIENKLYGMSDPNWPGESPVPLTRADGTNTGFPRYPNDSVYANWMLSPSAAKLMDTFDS

[6] = Tmax in male Sprague-Dawley rat at 5 mg/kg, IG; assay type: ADME, organism-based; details: in vivo, po
[7] = AUC (0 to infinity) in male Sprague-Dawley rat at 5 mg/kg, IG; assay type: ADME, organism-based; details: in vivo, po
[8] = molecular target: Proto-oncogene tyrosine-protein kinase receptor Ret (Homo sapiens, UniProt P07949, V804L); test: Inhibition of RET V804L mutant (unknown origin) by FRET-based ZLyte kinase assay
[9] = molecular target: Vascular endothelial growth factor receptor 3 (Homo sapiens, UniProt P35916); test: Inhibition of FLT4 (unknown origin) by FRET-based Z-Lyte kinase assay
[10] = molecular target: Vascular endothelial growth factor receptor 2 (Homo sapiens, UniProt P35968); test: Inhibition of KDR (unknown origin) by FRET-based Z-Lyte kinase assay
[11] = Toxicity in mouse allografted with mouse BaF3 cells harbouring KIF5B-RET G810R mutant assessed as mortality at 10 to 30 mg/kg BID measured upto 14 days; assay type: organism-based; details: in vivo, 336 h, dose 10-30 mg/kg, time < 14 day
[12] = molecular target: Proto-oncogene tyrosine-protein kinase receptor Ret (Homo sapiens, UniProt P07949); test: Inhibition of wild type RET (unknown origin) by FRET-based ZLyte kinase assay
Chain of Proto-oncogene tyrosine-protein kinase receptor Ret (Homo sapiens, UniProt P07949) (P07949 whole entry): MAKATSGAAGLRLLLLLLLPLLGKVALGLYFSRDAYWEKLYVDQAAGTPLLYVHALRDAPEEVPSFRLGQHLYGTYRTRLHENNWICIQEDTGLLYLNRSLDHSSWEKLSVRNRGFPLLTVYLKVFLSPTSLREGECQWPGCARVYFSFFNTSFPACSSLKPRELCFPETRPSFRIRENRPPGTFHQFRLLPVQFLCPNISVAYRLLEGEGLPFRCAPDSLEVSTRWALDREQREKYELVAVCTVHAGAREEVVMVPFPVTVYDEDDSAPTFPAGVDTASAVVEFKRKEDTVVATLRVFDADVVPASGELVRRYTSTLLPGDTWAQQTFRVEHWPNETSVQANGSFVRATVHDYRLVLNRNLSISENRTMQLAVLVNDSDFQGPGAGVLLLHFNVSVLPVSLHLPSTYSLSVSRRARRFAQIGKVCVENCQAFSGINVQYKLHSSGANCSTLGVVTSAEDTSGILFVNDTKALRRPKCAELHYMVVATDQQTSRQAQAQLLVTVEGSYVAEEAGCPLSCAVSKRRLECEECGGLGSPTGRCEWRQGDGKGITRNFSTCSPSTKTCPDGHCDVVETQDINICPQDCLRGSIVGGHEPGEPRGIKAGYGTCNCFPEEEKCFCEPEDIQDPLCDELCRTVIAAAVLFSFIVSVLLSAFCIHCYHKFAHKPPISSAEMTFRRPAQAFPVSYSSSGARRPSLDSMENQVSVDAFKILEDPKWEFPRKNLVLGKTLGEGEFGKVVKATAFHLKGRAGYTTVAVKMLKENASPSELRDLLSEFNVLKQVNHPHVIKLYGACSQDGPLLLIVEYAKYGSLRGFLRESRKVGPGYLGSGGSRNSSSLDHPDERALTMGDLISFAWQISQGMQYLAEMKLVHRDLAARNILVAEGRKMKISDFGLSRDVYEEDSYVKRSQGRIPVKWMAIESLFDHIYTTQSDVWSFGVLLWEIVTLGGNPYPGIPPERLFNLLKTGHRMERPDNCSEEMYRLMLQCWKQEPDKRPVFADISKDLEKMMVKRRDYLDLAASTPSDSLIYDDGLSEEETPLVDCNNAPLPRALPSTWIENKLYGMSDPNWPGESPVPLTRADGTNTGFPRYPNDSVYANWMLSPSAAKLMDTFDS

[13] = Apparent volume of distribution in male Sprague-Dawley rat at 5 mg/kg, IG; assay type: ADME, organism-based; details: in vivo, po
[14] = molecular target: Vascular endothelial growth factor receptor 1 (Homo sapiens, UniProt P17948); test: Inhibition of FLT1 (unknown origin) by FRET-based Z-Lyte kinase assay
[15] = molecular target: Proto-oncogene tyrosine-protein kinase receptor Ret (Homo sapiens, UniProt P07949, G810C); test: Inhibition of RET G810C mutant (unknown origin) by FRET-based ZLyte kinase assay
[16] = molecular target: Proto-oncogene tyrosine-protein kinase receptor Ret (Homo sapiens, UniProt P07949, G810S); test: Inhibition of RET G810S mutant (unknown origin) by FRET-based ZLyte kinase assay
Chain of Proto-oncogene tyrosine-protein kinase receptor Ret (Homo sapiens, UniProt P07949, G810S) (P07949 29-1114 G810S limits assumed): as the sequence (P07949 29-1114 G810R limits assumed) above, with R782S counted along it

[17] = Half life in male Sprague-Dawley rat at 1 mg/kg, iv; assay type: ADME, organism-based; details: in vivo
[18] = molecular target: T1, Receptor-type tyrosine-protein kinase FLT3 (Homo sapiens, UniProt P36888); test: Inhibition of FLT3 (unknown origin) by FRET-based Z-Lyte kinase assay
T1 sequence (P36888 whole entry): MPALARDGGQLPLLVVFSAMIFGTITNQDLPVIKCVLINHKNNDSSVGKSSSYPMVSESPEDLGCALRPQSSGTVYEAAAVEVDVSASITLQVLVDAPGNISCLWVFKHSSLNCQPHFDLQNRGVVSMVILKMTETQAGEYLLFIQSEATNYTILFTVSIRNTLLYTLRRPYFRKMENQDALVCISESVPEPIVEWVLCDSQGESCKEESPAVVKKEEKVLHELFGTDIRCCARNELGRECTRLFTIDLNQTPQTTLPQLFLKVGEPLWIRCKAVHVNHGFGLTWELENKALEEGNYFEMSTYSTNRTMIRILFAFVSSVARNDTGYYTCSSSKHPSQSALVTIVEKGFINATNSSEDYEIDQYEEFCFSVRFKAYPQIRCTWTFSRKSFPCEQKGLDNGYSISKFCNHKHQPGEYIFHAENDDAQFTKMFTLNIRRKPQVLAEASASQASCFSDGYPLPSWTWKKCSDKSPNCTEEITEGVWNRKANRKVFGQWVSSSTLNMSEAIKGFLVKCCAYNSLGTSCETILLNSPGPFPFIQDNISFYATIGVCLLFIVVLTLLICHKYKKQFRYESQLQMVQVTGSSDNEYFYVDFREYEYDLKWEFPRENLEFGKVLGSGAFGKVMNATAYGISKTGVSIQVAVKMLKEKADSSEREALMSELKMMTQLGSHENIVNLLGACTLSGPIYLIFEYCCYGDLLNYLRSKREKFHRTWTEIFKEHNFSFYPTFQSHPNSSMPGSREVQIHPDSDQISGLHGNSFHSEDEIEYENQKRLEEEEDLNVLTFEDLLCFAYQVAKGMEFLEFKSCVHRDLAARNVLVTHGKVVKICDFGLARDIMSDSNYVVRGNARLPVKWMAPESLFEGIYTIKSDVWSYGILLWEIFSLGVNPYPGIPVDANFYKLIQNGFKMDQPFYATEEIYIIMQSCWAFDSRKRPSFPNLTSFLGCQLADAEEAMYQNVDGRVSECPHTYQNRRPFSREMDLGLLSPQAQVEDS

[19] = Half life in male Sprague-Dawley rat at 5 mg/kg, IG; assay type: ADME, organism-based; details: in vivo, po
[20] = Toxicity in mouse allografted with mouse BaF3 cells harbouring KIF5B-RET G810R mutant assessed as drug tolerance at 10 to 30 mg/kg BID measured upto 14 days; assay type: organism-based; details: in vivo, 336 h, dose 10-30 mg/kg, time < 14 day
[21] = Toxicity in mouse allografted with mouse BaF3 cells harbouring KIF5B-RET-wild type assessed as mortality at 10 mg/kg BID measured upto 14 days; assay type: organism-based; details: in vivo, 336 h, time < 14 day
[22] = Apparent volume of distribution in male Sprague-Dawley rat at 1 mg/kg, iv; assay type: ADME, organism-based; details: in vivo, read-out: Vz
[23] = Cmax in male Sprague-Dawley rat at 5 mg/kg, IG; assay type: ADME, organism-based; details: in vivo, po
[24] = molecular target: Fibroblast growth factor receptor 4 (Homo sapiens, UniProt P22455); test: Inhibition of FGFR4 (unknown origin) by FRET-based Z-Lyte kinase assay
Chain of Fibroblast growth factor receptor 4 (P22455 whole entry): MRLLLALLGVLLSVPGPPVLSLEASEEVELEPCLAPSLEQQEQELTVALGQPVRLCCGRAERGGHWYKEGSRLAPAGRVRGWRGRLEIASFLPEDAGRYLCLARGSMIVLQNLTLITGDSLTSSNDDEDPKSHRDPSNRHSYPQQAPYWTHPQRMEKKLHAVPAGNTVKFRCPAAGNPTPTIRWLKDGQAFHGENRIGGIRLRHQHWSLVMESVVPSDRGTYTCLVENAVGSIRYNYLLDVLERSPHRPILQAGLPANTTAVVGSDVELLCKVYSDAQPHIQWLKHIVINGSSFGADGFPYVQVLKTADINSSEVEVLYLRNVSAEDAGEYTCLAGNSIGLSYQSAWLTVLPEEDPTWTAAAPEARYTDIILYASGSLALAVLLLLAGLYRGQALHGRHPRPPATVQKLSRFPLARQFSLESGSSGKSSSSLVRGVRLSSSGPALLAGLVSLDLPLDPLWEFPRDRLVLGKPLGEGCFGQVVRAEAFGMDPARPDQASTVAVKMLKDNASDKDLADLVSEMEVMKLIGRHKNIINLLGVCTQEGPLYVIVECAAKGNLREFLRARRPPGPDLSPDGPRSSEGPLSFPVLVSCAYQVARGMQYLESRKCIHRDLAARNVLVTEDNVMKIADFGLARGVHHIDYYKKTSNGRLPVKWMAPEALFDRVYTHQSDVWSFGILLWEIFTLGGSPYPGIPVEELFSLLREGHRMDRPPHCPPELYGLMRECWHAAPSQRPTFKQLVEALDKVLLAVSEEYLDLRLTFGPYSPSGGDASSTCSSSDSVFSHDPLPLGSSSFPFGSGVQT

[25] = Oral bioavailability in male Sprague-Dawley rat at 5 mg/kg, IG; assay type: ADME, organism-based; details: in vivo
[26] = molecular target: Proto-oncogene tyrosine-protein kinase receptor Ret (Homo sapiens, UniProt P07949, M918T); test: Inhibition of RET M918T mutant (unknown origin) by FRET-based ZLyte kinase assay
[27] = molecular target: Proto-oncogene tyrosine-protein kinase receptor Ret (Homo sapiens, UniProt P07949, V804M); test: Inhibition of RET V804M mutant (unknown origin) by FRET-based ZLyte kinase assay
[28] = AUC (0 to infinity) in male Sprague-Dawley rat at 1 mg/kg, iv; assay type: ADME, organism-based; details: in vivo
[29] = molecular target: Tyrosine-protein kinase JAK2 (Homo sapiens, UniProt O60674); test: Inhibition of JAK2 (unknown origin) by FRET-based Z-Lyte kinase assay
Chain of Tyrosine-protein kinase JAK2 (O60674 whole entry): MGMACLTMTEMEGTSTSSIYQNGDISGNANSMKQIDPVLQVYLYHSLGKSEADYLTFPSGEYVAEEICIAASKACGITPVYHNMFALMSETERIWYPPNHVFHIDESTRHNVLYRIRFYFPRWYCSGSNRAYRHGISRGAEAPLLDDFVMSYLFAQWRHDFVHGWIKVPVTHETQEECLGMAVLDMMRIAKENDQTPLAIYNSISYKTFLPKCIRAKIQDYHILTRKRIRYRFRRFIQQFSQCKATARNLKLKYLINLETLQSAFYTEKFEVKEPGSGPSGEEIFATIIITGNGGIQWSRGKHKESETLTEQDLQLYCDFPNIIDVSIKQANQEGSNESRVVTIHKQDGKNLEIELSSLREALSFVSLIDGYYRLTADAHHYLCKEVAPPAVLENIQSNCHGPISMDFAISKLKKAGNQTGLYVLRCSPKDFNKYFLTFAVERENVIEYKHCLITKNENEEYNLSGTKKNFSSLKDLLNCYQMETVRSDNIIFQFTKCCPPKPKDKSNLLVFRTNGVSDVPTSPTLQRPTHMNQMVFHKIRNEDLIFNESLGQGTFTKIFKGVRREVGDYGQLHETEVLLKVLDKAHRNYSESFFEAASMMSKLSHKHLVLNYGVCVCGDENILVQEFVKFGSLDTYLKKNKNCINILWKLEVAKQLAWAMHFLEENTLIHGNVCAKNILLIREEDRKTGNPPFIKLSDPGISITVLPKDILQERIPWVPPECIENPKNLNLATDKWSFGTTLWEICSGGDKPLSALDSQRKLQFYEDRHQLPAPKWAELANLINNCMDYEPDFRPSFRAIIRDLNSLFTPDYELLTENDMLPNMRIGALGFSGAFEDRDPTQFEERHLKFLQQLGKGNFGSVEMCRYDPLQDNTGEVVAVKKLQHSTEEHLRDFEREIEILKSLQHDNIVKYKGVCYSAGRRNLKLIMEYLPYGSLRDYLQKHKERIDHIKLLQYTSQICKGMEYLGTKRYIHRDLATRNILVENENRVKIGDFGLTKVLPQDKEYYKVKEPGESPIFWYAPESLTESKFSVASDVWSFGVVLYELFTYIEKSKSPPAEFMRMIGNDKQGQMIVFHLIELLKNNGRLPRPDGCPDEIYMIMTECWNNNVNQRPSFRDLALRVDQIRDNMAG

[30] = Toxicity in mouse allografted with mouse BaF3 cells harbouring KIF5B-RET-wild type assessed as effect on body weight loss at 10 mg/kg BID measured upto 14 days; assay type: organism-based; details: in vivo, 336 h, time < 14 day
[31] = Clearance in male Sprague-Dawley rat at 5 mg/kg, IG; assay type: ADME, organism-based; details: in vivo, po
[32] = Toxicity in mouse allografted with mouse BaF3 cells harbouring KIF5B-RET-wild type assessed as drug tolerance at 10 mg/kg BID measured upto 14 days; assay type: organism-based; details: in vivo, 336 h, time < 14 day

## COc1ccc(CN2C3CC2CN(c2ccc(-c4nc(-c5cnn(C)c5)cc5ncccc45)cn2)C3)cc1C#N
[1]
  Cmax: 265 ng/mL
[2]
  clearance: 40 mL/min/kg
[3]
  Activity: Non-Toxic
[4]
  pIC50: 6.48
[5]
  pIC50: 8.08
[6]
  Tmax: 1.6 h
[7]
  AUC(0-inf): 686 ng·h/mL
[8]
  pIC50: 9.70
[9]
  pIC50: 8.29
[10]
  pIC50: 7.56
[11]
  Activity: Non-Toxic
[12]
  pIC50: 8.49
[13]
  Vz: 48.1 L/kg
[14]
  pIC50: 7.46
[15]
  pIC50: 8.15
[16]
  pIC50: 8.24
[17]
  half-life: 300 min
[18]
  pIC50: 7.28
[19]
  half-life: 276 min
[20]
  Activity: Non-Toxic
[21]
  Activity: Non-Toxic
[22]
  Vd: 17.2 L/kg
[23]
  Cmax: 140 ng/mL
[24]
  pIC50: 6.95
[25]
  bioavailability: 30.4%
[26]
  pIC50: 9.40
[27]
  pIC50: 8.74
[28]
  AUC(0-inf): 451 ng·h/mL
[29]
  pIC50: 5.58
[30]
  Activity: Non-Toxic
[31]
  CL/F: 122 mL/min/kg
[32]
  Activity: Non-Toxic
